Laboratory results reported in ChEMBL document CHEMBL4184187, “Current knowledge on the nucleotide agonists for the P2Y2 receptor” (Bioorg Med Chem, 2018).

Experiments:
[1] = molecular target: T1, P2Y purinoceptor 2 (Homo sapiens, UniProt P41231); experiment: Agonist activity at human P2Y2 receptor expressed in 1321N1 cells assessed as [3H]-inositol phosphate accumulation measured after 90 mins by anion exchange chromatographic method; type: functional, cell-based
[2] = molecular target: T1, P2Y purinoceptor 2; experiment: Agonist activity at P2Y2 receptor (unknown origin); type: functional
[3] = molecular target: P2Y purinoceptor 1 (Homo sapiens, UniProt P47900); experiment: Antagonist activity at P2Y1 receptor (unknown origin); type: functional
P2Y purinoceptor 1, sequence (P47900 whole entry): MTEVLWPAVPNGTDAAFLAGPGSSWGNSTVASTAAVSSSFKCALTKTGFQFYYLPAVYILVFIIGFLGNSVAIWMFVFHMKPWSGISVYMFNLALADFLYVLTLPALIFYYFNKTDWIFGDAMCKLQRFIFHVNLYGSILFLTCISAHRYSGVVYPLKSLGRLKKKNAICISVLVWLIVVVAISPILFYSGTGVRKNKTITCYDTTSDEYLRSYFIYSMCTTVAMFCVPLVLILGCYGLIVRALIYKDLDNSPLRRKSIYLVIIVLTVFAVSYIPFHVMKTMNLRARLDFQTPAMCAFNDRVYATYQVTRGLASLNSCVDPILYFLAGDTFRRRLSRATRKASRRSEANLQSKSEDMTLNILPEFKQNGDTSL

[4] = molecular target: T1, P2Y purinoceptor 2; experiment: Agonist activity at P2Y2 receptor in NG108-15 cells (unknown origin); type: functional, cell-based
[5] = molecular target: T1, P2Y purinoceptor 2; experiment: Agonist activity at P2Y2 receptor in human CF/T43 cells; type: functional, cell-based
[6] = molecular target: T1, P2Y purinoceptor 2; experiment: Agonist activity at P2Y2 receptor in BEA cells (unknown origin); type: functional, cell-based

T1 sequence (P41231 whole entry): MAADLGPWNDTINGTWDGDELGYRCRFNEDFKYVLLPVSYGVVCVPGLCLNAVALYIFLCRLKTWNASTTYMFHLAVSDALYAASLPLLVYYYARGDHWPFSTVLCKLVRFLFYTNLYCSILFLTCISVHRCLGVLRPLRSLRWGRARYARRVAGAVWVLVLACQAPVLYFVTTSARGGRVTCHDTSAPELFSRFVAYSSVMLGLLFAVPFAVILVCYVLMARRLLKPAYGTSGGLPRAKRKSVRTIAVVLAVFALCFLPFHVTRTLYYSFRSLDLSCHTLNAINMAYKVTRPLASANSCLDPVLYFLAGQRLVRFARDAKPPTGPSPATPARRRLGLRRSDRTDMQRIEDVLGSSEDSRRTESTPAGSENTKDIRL

O=c1[nH]c(=S)ccn1[C@@H]1O[C@H](COP(=O)(O)OP(=O)(O)OP(=O)(O)O)[C@@H](O)[C@H]1O gave an EC50 [1] of 710 nM.

In the case of O=c1[nH]c(=O)n([C@@H]2O[C@H](COP(=O)(O)OP(=O)(O)OP(=O)(O)O)[C@@H](O)[C@H]2O)cc1Br, the EC50 [2] is reported as 220 nM.

Work on O=c1nc(N2CCOCC2)ccn1[C@@H]1O[C@H](COP(=O)(O)OP(=O)(O)OP(=O)(O)O)[C@@H](O)[C@H]1O yielded an EC50 [1] of 10200 nM.

Compound C#CCNC(=O)COc1ccc(CCCO/N=c2\ccn([C@@H]3O[C@H](COP(=O)(O)OP(=O)(O)OP(=O)(O)O)[C@@H](O)[C@H]3O)c(=O)[nH]2)cc1 has an EC50 [1] of 109 nM.

With CCCCCCOc1ccn([C@@H]2O[C@H](COP(=O)(O)OP(=O)(O)OP(=O)(O)O)[C@@H](O)[C@H]2O)c(=O)n1 the EC50 [1] was 489000 nM.

With CSc1ccn([C@@H]2O[C@H](COP(=O)(O)OP(=O)(O)OP(=O)(O)O)[C@@H](O)[C@H]2O)c(=O)n1 the EC50 [1] was 3100 nM.

In the case of COc1ccn([C@@H]2O[C@H](COP(=O)(O)OP(=O)(O)OP(=O)(O)O)[C@@H](O)[C@H]2O)c(=O)n1, the EC50 [1] is reported as 15500 nM.

With CNc1ncnc2c1ncn2[C@@H]1C[C@H](COP(=O)(O)O)[C@@H](OP(=O)(O)O)C1 the IC50 [3] was 148 nM.

Work on CCCCCCNc1ccn([C@@H]2O[C@H](COP(=O)(O)OP(=O)(O)OP(=O)(O)O)[C@@H](O)[C@H]2O)c(=O)n1 yielded an EC50 [1] of 26300 nM.

In the case of CN(C)c1ccn([C@@H]2O[C@H](COP(=O)(O)OP(=O)(O)OP(=O)(O)O)[C@@H](O)[C@H]2O)c(=O)n1, the EC50 [1] is reported as 29800 nM.

For CCCCCCSc1ccn([C@@H]2O[C@H](COP(=O)(O)OP(=O)(O)OP(=O)(O)O)[C@@H](O)[C@H]2O)c(=O)n1, the EC50 [1] was 840 nM.

Compound Nc1ncnc2c1ncn2[C@@H]1O[C@H](COP(=O)(O)OP(=O)(O)OP(=O)(O)O)[C@@H](O)[C@H]1O [ADENOSINE TRIPHOSPHATE] has an EC50 [4] of 180 nM, an EC50 [5] of 200 nM and an EC50 [6] of 200 nM.

Nc1ccn([C@@H]2O[C@H](COP(=O)(O)OP(=O)(O)OP(=O)(O)O)[C@@H](O)[C@H]2O)c(=O)n1 [CYSTETINE TRIPHOSPHATE] was tested, and the EC50 [1] was 37800 nM.

O=c1ccn([C@@H]2O[C@H](COP(=O)(O)OP(=O)(O)OP(=O)(O)O)[C@@H](O)[C@H]2O)c(=O)[nH]1 [URIDINE TRIPHOSPHATE] gave an EC50 [4] of 1250 nM, an EC50 [6] of 160 nM and an EC50 [1] of 120 nM.
